Experimental data: ChEMBL document CHEMBL1201862, “PubChem BioAssay data set” (2004)
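How tested: cells in 96-well plates exposed to compound for 48 hours at five concentrations. The concentration for 50% growth inhibition is given as GI50.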 The source made the active and inactive calls. Rule as the data show it: active = GI50 up to about 1.1 µM and inactive = higher.

Key:
Assay in all cases: DTP human tumour cell line panel, 48 h
MCF7 = system: MCF7
UACC-62 = system: UACC-62
ACHN = system: ACHN
COLO 205 = system: COLO 205
MDA-MB-231 = system: MDA-MB-231
M14 = system: M14
IGROV-1 = system: IGROV-1
SF-539 = system: SF-539
OVCAR-5 = system: OVCAR-5
NCI-H460 = system: NCI-H460
HL-60 = system: HL-60
SW-620 = system: SW-620
SK-MEL-5 = system: SK-MEL-5
KM12 = system: KM12
UO-31 = system: UO-31
LOX IMVI = system: LOX IMVI
HOP-62 = system: HOP-62
PC-3 = system: PC-3

Compound	GI50 (MCF7)	GI50 (UACC-62)	GI50 (ACHN)	GI50 (COLO 205)	GI50 (MDA-MB-231)	GI50 (M14)	GI50 (IGROV-1)	GI50 (SF-539)	GI50 (OVCAR-5)	GI50 (NCI-H460)	GI50 (HL-60)	GI50 (SW-620)	GI50 (SK-MEL-5)	GI50 (KM12)	GI50 (UO-31)	GI50 (LOX IMVI)	GI50 (HOP-62)	GI50 (PC-3)
CC(NC(=O)c1ccccc1)(C(=O)O)C(=O)O	> 100 µM (inactive)	> 100 µM (inactive)	> 100 µM (inactive)	> 100 µM (inactive)	> 100 µM (inactive)	> 100 µM (inactive)	> 100 µM (inactive)	> 100 µM (inactive)	> 100 µM (inactive)	> 100 µM (inactive)	> 100 µM (inactive)	> 100 µM (inactive)	> 100 µM (inactive)	> 100 µM (inactive)	> 100 µM (inactive)	> 100 µM (inactive)	> 100 µM (inactive)	> 100 µM (inactive)
CN1CCN(c2ccc([N+](=O)[O-])c3no[n+]([O-])c23)CC1	0.0817 µM (active)	0.769 µM (active)	0.0395 µM (active)	0.656 µM (active)	1.34 µM (inactive)	0.153 µM (active)	0.0719 µM (active)	0.0652 µM (active)	1.76 µM (inactive)	0.0334 µM (active)	0.0366 µM (active)	0.0631 µM (active)	0.743 µM (active)	0.098 µM (active)	0.239 µM (active)	0.0485 µM (active)	0.0607 µM (active)	0.557 µM (active)
CC1C(O)Oc2cc3c(cc2C1c1ccccc1O)OCO3 (stereo not drawn)	38.1 µM (inactive)	29.5 µM (inactive)	29.6 µM (inactive)	16.2 µM (inactive)	34.6 µM (inactive)	30.5 µM (inactive)	28 µM (inactive)	27.9 µM (inactive)	45.7 µM (inactive)	23.4 µM (inactive)	17.9 µM (inactive)	39.1 µM (inactive)	33.3 µM (inactive)	32.1 µM (inactive)	28.8 µM (inactive)	31.6 µM (inactive)	65 µM (inactive)	19.5 µM (inactive)
COc1cc(/C=C2\C(=O)N(c3ccc(NC(C)=O)cc3)C(c3ccccc3)S2(=O)=O)cc(OC)c1OC (stereo not drawn)	45.5 µM (inactive)	> 100 µM (inactive)	> 100 µM (inactive)	> 100 µM (inactive)	> 100 µM (inactive)	> 100 µM (inactive)	> 100 µM (inactive)	> 100 µM (inactive)	> 100 µM (inactive)	> 100 µM (inactive)	18.3 µM (inactive)	> 100 µM (inactive)	68.1 µM (inactive)	> 100 µM (inactive)	66.5 µM (inactive)	> 100 µM (inactive)	> 100 µM (inactive)	48.4 µM (inactive)
CC1(C)CCC(=O)NC1CC(=O)CC1NC(=O)CCC1(C)C (stereo not drawn)	> 100 µM (inactive)	> 100 µM (inactive)	> 100 µM (inactive)	> 100 µM (inactive)	> 100 µM (inactive)	> 100 µM (inactive)	> 100 µM (inactive)	> 100 µM (inactive)	> 100 µM (inactive)	> 100 µM (inactive)	32.7 µM (inactive)	> 100 µM (inactive)	> 100 µM (inactive)	> 100 µM (inactive)	> 100 µM (inactive)	> 100 µM (inactive)	> 100 µM (inactive)	> 100 µM (inactive)
Cc1cc(=O)oc2c(CNC(C(=O)O)C(C)O)c(O)ccc12 (stereo not drawn)	> 100 µM (inactive)	> 100 µM (inactive)	> 100 µM (inactive)	> 100 µM (inactive)	> 100 µM (inactive)	> 100 µM (inactive)	> 100 µM (inactive)	> 100 µM (inactive)	> 100 µM (inactive)	> 100 µM (inactive)	> 100 µM (inactive)	> 100 µM (inactive)	> 100 µM (inactive)	> 100 µM (inactive)	> 100 µM (inactive)	> 100 µM (inactive)	> 100 µM (inactive)	> 100 µM (inactive)
COc1ccc(-c2cn3c(n2)sc2cc(C)ccc23)cc1	4.85 µM (inactive)	12.3 µM (inactive)	28.4 µM (inactive)	5.51 µM (inactive)	15.5 µM (inactive)	26.1 µM (inactive)	7.19 µM (inactive)	13.6 µM (inactive)	43.2 µM (inactive)	20.7 µM (inactive)	3.45 µM (inactive)	25.8 µM (inactive)	3.65 µM (inactive)	5.05 µM (inactive)	42.3 µM (inactive)	17.5 µM (inactive)	20.2 µM (inactive)	14.8 µM (inactive)
CCN1C(=O)c2ccccc2C1(O)c1ccc(Cl)cc1 (stereo not drawn)	47.6 µM (inactive)	79.1 µM (inactive)	46.5 µM (inactive)	35.6 µM (inactive)	> 100 µM (inactive)	59.4 µM (inactive)	29.1 µM (inactive)	> 100 µM (inactive)	88.1 µM (inactive)	89.7 µM (inactive)	30 µM (inactive)	> 100 µM (inactive)	31.6 µM (inactive)	46 µM (inactive)	53.5 µM (inactive)	51.4 µM (inactive)	78 µM (inactive)	24.7 µM (inactive)
CCN(CC)CCN1CCN=c2c3cc(OC)ccc3n3cnc4ccc1c2c43	0.171 µM (active)	1.71 µM (inactive)	0.339 µM (active)	0.362 µM (active)	0.483 µM (active)	0.719 µM (active)	0.357 µM (active)	0.323 µM (active)	0.736 µM (active)	0.199 µM (active)	0.43 µM (active)	0.0456 µM (active)	1.4 µM (inactive)	0.367 µM (active)	1.41 µM (inactive)	0.311 µM (active)	0.979 µM (active)	0.391 µM (active)
CC1(C)CC2C=C(C=O)C3(C=O)CC3(C)C2C1 (stereo not drawn)	1.34 µM (inactive)	5.46 µM (inactive)	1.49 µM (inactive)	1.89 µM (inactive)	1.91 µM (inactive)	2.29 µM (inactive)	2.15 µM (inactive)	1.95 µM (inactive)	1.79 µM (inactive)	4.44 µM (inactive)	0.0333 µM (active)	0.582 µM (active)	1.64 µM (inactive)	4.39 µM (inactive)	1.69 µM (inactive)	1.34 µM (inactive)	2.09 µM (inactive)	1.12 µM (active)
C=C(Cl)C(Cl)(CBr)CCCC(C)(C)Cl (stereo not drawn)	7.1 µM (inactive)	17.4 µM (inactive)	6.68 µM (inactive)	7.5 µM (inactive)	> 38.6 µM (inactive)	> 75.2 µM (inactive)	33.3 µM (inactive)	2.47 µM (inactive)	18.4 µM (inactive)	5.71 µM (inactive)	1.53 µM (inactive)	20.4 µM (inactive)	29.9 µM (inactive)	1.7 µM (inactive)	14.5 µM (inactive)	11.9 µM (inactive)	4.26 µM (inactive)	3.25 µM (inactive)
